Values quoted from earlier work as cited in patent US7009061B2, “Diterpene compounds” (Nihon University, priority 2003, dated 2006).

Tested on: P-388 cells

| Compound | depressive activities against P-388 cells in vivo |
| --- | --- |
| CCCCCCCCCCCCCCCC(=O)OCC1=C[C@@H]2C(=O)[C@]3(C=C(C)[C@H](OC(=O)C(C)C(C)C)[C@@]3(O)[C@@H]1O)[C@H](C)C[C@]1(OC(=O)CCCCCCCCCCC)[C@H]2C1(C)C (some centres unmarked) [kansuiphorin A] | depressive activities |
| kanusiphorin B | depressive activities |
